The values below are quoted from earlier work in patent publication US4639511A, “Des-19-leucine-calcitonin analogs” (Armour Pharmaceutical Company, priority 1985, dated 1987).

Positions of bridges follow the written chain, without caps; N, C: chain ends. No end group written: not given here.

The conditions of data set [1]: literature values, Monikawa et al.
Data set [2] relates to serum calcium concentration. The settings on record: standard used in the rat assay.

For “(1,7-α-L-aminosuberic acid)eel calcitonin”, the hypocalcemic potency result in data set [1] is reported as “about 3400 IU/mg”.

“eel calcitonin (CSNLSTCVLGKLSQELHKLQTYPRTDVGAGTP-NH2; disulfide 1-7; ends not checked; UniProt P01262 1-32, looked up) [synthetic eel calcitonin, synthetic eel calcitonin from Monikawa et al]”: the hypocalcemic potency entry in data set [1] was “around 4300 IU/mg”.

With “salmon calcitonin [standard salmon calcitonin]”, the “potency of the standard salmon calcitonin, independently determined” value in data set [2] was “greater than 4,000 IU/mg”.
